Where “and” joins values, the source holds several entries; their conditions need not be identical. Equal entries are not always repeated. Where two headings read alike, the source gives them in different places.
Legend:
ICR mouse = assay: Passive avoidance test in scopolamine-treated mice; assay type: in vivo; settings: scopolamine i.p., mean ± standard error
Description: Each material prepared in the preparation example was prepared so that each may be orally administered to 7 experimental groups in the following and Table 1.
In the following Table 1, only the excipient prepared in the preparation examples was orally administered to a normal control group and a negative control group, respectively, scopolamine was administered to the remaining experimental groups (G2-G7) other than the normal control group (G1) in the behavioral experiment of Test Example 4 to cause cognitive function decline and a memory impairment effect, and then the behavior was observed.
After the test material (drug) of Test Example 3 was administered to each experimental group during the test, a passive avoidance test was performed, and change in mouse behavior was observed.
After each of the test materials was administered to each experimental group of Table 1 of Test Example 3, the passive avoidance test was performed on day 25 by the following procedure: • a) The object was put into an unlit white room of a conditioning box for the passive avoidance test, and then was adapted for 60 seconds. • b) A guillotine door was opened simultaneously with turning on a LED light of the white room, and the object was allowed to explore a dark room for 180 seconds for adaptation. • c) On the next day (day 26) also, the above process was performed and repeated once more, and the object was adapted so that it took around 30 seconds to enter the dark room after turning on the LED light. • d) After administering the drug 1 hour before learning on day 27, 4 mL/kg of Scopolamine which was dissolved at 0.25 mg/mL in a 0.9% saline solution was intraperitoneally administered to the objects of the remaining experimental groups other than the normal control group (G1), respectively, after 30 minutes, and the objects were allowed to stand for 30 minutes in the breeding box. • e) 30 minutes after administering Scopolamine, the objects were put into the unlit white room, the guillotine door was opened simultaneously with turning on the LED light after 10 seconds. When all of the four legs of the objects entered to the dark room, the guillotine door was closed, the time spent (latency time) was measured with a timer, and electrical stimulation was given at 0.5 mA for 3 seconds.

[1] = tested on: Acetylcholine esterase (AchE); assay type: in vivo; settings: forebrain, scopolamine, mean ± standard error
Description: On the next day of the end of the passive avoidance test, the test material was administered, and the objects were allowed to stand in a home cage for 30 minutes. Subsequently, Scopolamine was intraperitoneally administered at a dose of 1 mg/kg, and then the objects were allowed to stand in a home cage for 30 minutes.
A brain tissue was separately separated and stored at −70° C. until analysis.
Acetylcholine esterase (AchE) activity was measured with a supernatant liquid obtained by adding a tissue protein extraction reagent (Biovision, CA, USA) to a forebrain tissue, crushing it, and centrifuging it, using an acetylcholinesterase activity assay kit (Biovision, CA, USA).

Structure (SMILES): CCCCCCCCCCCCCCCC(=O)NC(CO)CO [Neuromide, N-palmitoyl serinol]
- Passive avoidance test Time taken (latency time) (ICR mouse; Neuromide 16 mg/kg oral): 22.3 s and 22.3 ± 3.6 s
- Passive avoidance test Time taken (latency time) (ICR mouse; Neuromide 40 mg/kg oral): 31 s and 31 ± 8.9 s
- Passive avoidance test Time taken (latency time) (ICR mouse; Neuromide 100 mg/kg oral): 35.7 s and 35.7 ± 11.5 s
- Acetylcholinesterase (AchE) activity ([1]; Neuromide 16 mg/kg oral): 7.17 mU/mg tissue protein and 7.17 ± 1.75 mU/mg tissue protein
- Acetylcholinesterase (AchE) activity ([1]; Neuromide 40 mg/kg oral): 7.79 mU/mg tissue protein and 7.79 ± 1.93 mU/mg tissue protein
- Acetylcholinesterase (AchE) activity ([1]; Neuromide 100 mg/kg oral): 6.19 mU/mg tissue protein and 6.19 ± 1.84 mU/mg tissue protein

From patent publication US20240024261A1, “PHARMACEUTICAL COMPOSITION FOR IMPROVING COGNITIVE ABILITY OR ENHANCING MEMORY” (DR. RAYMOND LAB INC, priority 2020, published 2024)
